In patent EP0320630A1, “Enantiometric iodobenzamides” (THE VANDERBILT UNIVERSITY, priority 1987, dated 1989):

What was measured:
dopamine D-2 receptor [1] = target: T1, dopamine D-2 receptor (Rattus norvegicus, UniProt P61169); assay: Blocking of [3H]spiperone binding to rat striatal membranes; conditions: radioligand [3H]spiperone at 0.5 nM; rat striatal membrane preparation; 30 min at 37 °C
T1 construct: 90 µL of the striatal membrane preparation; from tissue; host or cells: rat striatum (membrane homogenate)
Method: (§1) The procedure, described by de […]., and Beart P.M., Eur. J. Pharmacol. 106 133-139 (1984), is as follows: Male Sprague-Dawley rats (150-200 g) were killed by decapitation and their brains quickly removed and dissected on ice. Striata were dissected and homogenized in 40 vol of ice-cold 50 mM Tris-HCl buffer (pH 7.4) containing 120 mM sodium chloride, 5 mM potassium chloride, 2 mM calcium chloride, and 1 mM magnesium chloride using a Brinkman Polytron. The suspension was centrifuged at 30,000 x g for 10 min at 4 °C, and the pellet was resuspended in 40 vol of fresh buffer. The suspension was incubated at 37 °C for 10 min, centrifuged again at 30,000 x g for 10 min at 4 °C, and the final pellet was resuspended with the polytron in 200 vol of ice cold buffer. […] Tubes were incubated for 30 min at 37 °C, poured over Whatman GF/B filters under vacuum, and the filters were rinsed three times with 4 mL of ice cold buffer.

dopamine D-2 receptor [2] = target: T1, dopamine D-2 receptor; assay: Blocking of [3H](S)-sulpiride binding to rat striatal membranes; conditions: radioligand [3H](S)-sulpiride at 5.0 nM; rat striatal membrane preparation; 30 min at 37 °C
Method: as §1

T1 sequence (P61169 whole entry): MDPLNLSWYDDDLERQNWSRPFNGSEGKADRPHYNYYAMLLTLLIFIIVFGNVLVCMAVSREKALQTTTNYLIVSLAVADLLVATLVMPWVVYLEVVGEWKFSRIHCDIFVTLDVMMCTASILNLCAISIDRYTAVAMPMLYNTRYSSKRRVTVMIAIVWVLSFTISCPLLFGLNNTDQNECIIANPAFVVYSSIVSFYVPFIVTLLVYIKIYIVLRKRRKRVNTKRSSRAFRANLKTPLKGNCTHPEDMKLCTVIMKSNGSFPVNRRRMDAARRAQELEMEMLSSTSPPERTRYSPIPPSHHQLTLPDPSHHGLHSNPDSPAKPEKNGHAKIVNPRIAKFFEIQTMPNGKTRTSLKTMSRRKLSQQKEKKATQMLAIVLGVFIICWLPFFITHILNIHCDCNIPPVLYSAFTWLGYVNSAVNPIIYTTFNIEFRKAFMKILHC

Row | IC50 (dopamine D-2 receptor [1]) | IC50 (dopamine D-2 receptor [2]) | Structure (SMILES)
1 | 560 ± 200 nM | 145 ± 5 nM | CCN1CCC[C@@H]1CNC(=O)c1cc(I)ccc1OC
2 | 16.4 ± 4.9 nM | 3.3 ± 0.9 nM | CCN1CCC[C@H]1CNC(=O)c1cc(I)ccc1OC
